Data as given in article PMC10257182, “Discovery of senolytics using machine learning” (Nature Communications, 2023).
Where two headings read alike, the source gives them in different places.

Columns and labels:
Format in all cases: cell-based, human
[1] = test system: non-senescent control A549 cells; experiment: Nuclei count senolytic assay, TIS model, non-senescent control cells; conditions: Homo sapiens, A549, Control cells, mean, read-out: Mean % Cell Survival
Summary of the method: (§1)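 A549 cells were made senescent with 100 μM etoposide for 48 h, then kept three days in normal media; non-senescent A549 served as controls. Compounds were dosed as a 10-point […] series (10 μM to 10 nM final) for 72 h in triplicate. Hoechst-stained nuclei were counted by imaging after fixation.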

[2] = test system: non-senescent control IMR90 ER:RAS cells; experiment: Nuclei count (Hoechst, high content imaging) senolytic assay, OIS model, non-senescent control cells; conditions: Homo sapiens
Summary of the method: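 Senescence in IMR90 ER:RAS fibroblasts induced with 100 nM 4-OHT; non-senescent and senescent cells treated 72 h with compounds, 10-point […] range 10 μM–10 nM, triplicate. Cells fixed, permeabilised, Hoechst-stained; total nuclei per well counted by high-content imaging versus untreated controls as cell-death readout.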

[3] = test system: senescent A549 cells (etoposide-induced); experiment: Nuclei count senolytic assay, therapy-induced senescence (TIS) model, senescent cells; conditions: Homo sapiens, A549, Senescent cells, mean, read-out: Mean % Cell Survival
Summary of the method: as §1

O=c1oc2c(O)c(O)cc3c(=O)oc4c(O)c(O)cc1c4c23 [Ellagic acid, ellagic acid]
viability at 10 µM ([1]; log (dose) [M] -5): 90.6% | viability at 4.68 µM ([1]; log (dose) [M] -5.33): 76.6% | viability at 2.19 µM ([1]; log (dose) [M] -5.66): 114% | viability at 1 µM ([1]; log (dose) [M] -6): 78.9% | viability at 0.468 µM ([1]; log (dose) [M] -6.33): 39.9% | viability at 0.219 µM ([1]; log (dose) [M] -6.66): 77.2% | viability at 0.1 µM ([1]; log (dose) [M] -7): 65.1% | viability at 0.0468 µM ([1]; log (dose) [M] -7.33): 99% | viability at 0.0219 µM ([1]; log (dose) [M] -7.66): 94.5% | viability at 0.01 µM ([1]; log (dose) [M] -8): 109% | viability at 10 µM ([2]; IMR-90, 72 h, Control, log (dose) [M] -5, 72 h, mean n=3 (Fig 3C), read-out: Mean % Cell Survival): 108% | viability at 4.677 µM ([2]; IMR-90, 72 h, Control, log (dose) [M] -5.33, 72 h, mean n=3 (Fig 3C), read-out: Mean % Cell Survival): 92.9% | viability at 2.188 µM ([2]; IMR-90, 72 h, Control, log (dose) [M] -5.66, 72 h, mean n=3 (Fig 3C), read-out: Mean % Cell Survival): 111% | viability at 1 µM ([2]; IMR-90, 72 h, Control, log (dose) [M] -6, 72 h, mean n=3 (Fig 3C), read-out: Mean % Cell Survival): 105% | viability at 0.4677 µM ([2]; IMR-90, 72 h, Control, log (dose) [M] -6.33, 72 h, mean n=3 (Fig 3C), read-out: Mean % Cell Survival): 109% | viability at 0.2188 µM ([2]; IMR-90, 72 h, Control, log (dose) [M] -6.66, 72 h, mean n=3 (Fig 3C), read-out: Mean % Cell Survival): 111% | viability at 0.1 µM ([2]; IMR-90, 72 h, Control, log (dose) [M] -7, 72 h, mean n=3 (Fig 3C), read-out: Mean % Cell Survival): 102% | viability at 0.04677 µM ([2]; IMR-90, 72 h, Control, log (dose) [M] -7.33, 72 h, mean n=3 (Fig 3C), read-out: Mean % Cell Survival): 107% | viability at 0.02188 µM ([2]; IMR-90, 72 h, Control, log (dose) [M] -7.66, 72 h, mean n=3 (Fig 3C), read-out: Mean % Cell Survival): 112% | viability at 0.01 µM ([2]; IMR-90, 72 h, Control, log (dose) [M] -8, 72 h, mean n=3 (Fig 3C), read-out: Mean % Cell Survival): 104% | viability at 0.4677 µM ([2]; IMR-90, Control cells, log (dose) [M] -6.33, individual replicates, SUP FIG 4C, read-out: % Cell Survival): 118% | viability at 0.1 µM ([2]; IMR-90, Control cells, log (dose) [M] -7, individual replicates, SUP FIG 4C, read-out: % Cell Survival): 103% | viability at 10 µM ([2]; IMR-90, Control, log (dose) [M] -5, read-out: % Cell Survival): 133% | viability at 4.68 µM ([2]; IMR-90, Control, log (dose) [M] -5.33, read-out: % Cell Survival): 122% | viability at 2.19 µM ([2]; IMR-90, Control, log (dose) [M] -5.66, read-out: % Cell Survival): 120% | viability at 1 µM ([2]; IMR-90, Control, log (dose) [M] -6, read-out: % Cell Survival): 123% | viability at 0.468 µM ([2]; IMR-90, Control, log (dose) [M] -6.33, read-out: % Cell Survival): 120% | viability at 0.219 µM ([2]; IMR-90, Control, log (dose) [M] -6.66, read-out: % Cell Survival): 122% | viability at 0.1 µM ([2]; IMR-90, Control, log (dose) [M] -7, read-out: % Cell Survival): 130% | viability at 0.01 µM ([2]; IMR-90, Control, log (dose) [M] -8, read-out: % Cell Survival): 115% | viability at 10 µM ([3]; log (dose) [M] -5): 187% | viability at 4.68 µM ([3]; log (dose) [M] -5.33): 175% | viability at 2.19 µM ([3]; log (dose) [M] -5.66): 203% | viability at 1 µM ([3]; log (dose) [M] -6): 186% | viability at 0.468 µM ([3]; log (dose) [M] -6.33): 193% | viability at 0.219 µM ([3]; log (dose) [M] -6.66): 167% | viability at 0.1 µM ([3]; log (dose) [M] -7): 209% | viability at 0.0468 µM ([3]; log (dose) [M] -7.33): 241% | viability at 0.0219 µM ([3]; log (dose) [M] -7.66): 81.3% | viability at 0.01 µM ([3]; log (dose) [M] -8): 84.4%
